Results as given in paper PMC11447708, “Comprehensive Exploration of Bromophenol Derivatives: Promising Antibacterial Agents against SA and MRSA” (ACS Omega, 2024).
≈ marks a conversion by molar mass, not a printed value. Read-outs that look alike come from different tables or passages of the source.

How the values were obtained:
S. aureus ATCC 2793 = assay: agar well diffusion, zone of inhibition; type: cell-based, Staphylococcus aureus; details: for Diameter of zone inhibition on SA: Supplement S4, antibiotic standards; for inhibition zone diameter S. aureus: concentration (μg): 20 for 1-3, 10 for ampicillin and tobramycin, 30 for tetracycline
Protocol: (§1) The susceptibility test was measured in vitro by employing the agar well diffusion method.[20]S. aureus ATCC 2793 and P. aeruginosa ATCC 27853 strains were used in this experiment. A suspension of the test organism was prepared in nutrient broth by overnight culture for 24 h at 37 °C and 7.0 pH. The agar plate surface was inoculated by spreading a volume of the microbial inoculum over the entire agar surface. Then, a hole with a diameter of 6 to 8 mm was punched aseptically with a sterile tip, and a volume (20 μL) of the tested solution at the desired concentration was introduced into the well. Then, agar plates were incubated under suitable conditions depending upon the test microorganism. After incubation, the plates were examined and the diameters of the zone of complete inhibition were observed.

MRSA = assay: agar well diffusion, zone of inhibition; type: cell-based, Staphylococcus aureus; details: for Diameter of zone inhibition on MRSA: Supplement S4, antibiotic standards; for inhibition zone diameter MRSA: concentration (μg): 20 for 1-3, 10 for ampicillin and tobramycin, 30 for tetracycline
Protocol: Staphylococcus aureus ATCC 2793, Pseudomonas aeruginosa ATCC 27853, and P. aeruginosa PA14 were activated, cultured, and stored in a refrigerator at −25 °C in the Laboratory of Biotechnology, Faculty of Chemical, Da Nang University of Science and Technology, The University of Da Nang. The MRSA antibiotic-resistant strain was isolated, identified,[17] and kindly provided by Dr. Ngo Thai Bich Van, Faculty of Chemical, Da Nang University of Science and Technology, The University of Da Nang.
as §1

P. aeruginosa ATCC 27853 [1] = assay: agar well diffusion, zone of inhibition; type: cell-based, Pseudomonas aeruginosa; details: for Diameter of zone inhibition on PA: Supplement S4, antibiotic standards; for inhibition zone diameter P. aeruginosa: concentration (μg): 20 for 1-3, 10 for ampicillin and tobramycin, 30 for tetracycline
Protocol: as §1

S. aureus [2] = assay: microbroth dilution assay (MIC, resazurin); type: cell-based, Staphylococcus aureus; details: 18 h, 37 °C; for MIC: Staphylococcus aureus
Protocol: (§2) The antibacterial efficacy of the chosen compounds was assessed through the microbroth dilution assay conducted in 96-well culture plates.[21] A stock solution with a concentration of 20 mg/mL was prepared in dimethyl sulfoxide (DMSO). Subsequently, autoclaved nutrient broth (100 μL) was introduced into the culture plate wells, with the initial row of the microtiter plate receiving 100 μL of the test material. 2-fold serial dilutions of the test compounds were then meticulously executed. To serve as an indicator, 20 μL of 2× resazurin solution was added to each well. Finally, 10 μL of the bacterial suspension was incorporated into each well, yielding a final concentration of 5 × 10^6 CFU/mL. The experiment was conducted in duplicate, and the plates were incubated at 37 °C. After 18 h, the plates were scrutinized for any change in color indicative of bacterial growth.

P. aeruginosa [3] = assay: microbroth dilution assay (MIC, resazurin); type: cell-based, Pseudomonas aeruginosa; details: 18 h, 37 °C; for MIC: Pseudomonas aeruginosa
Protocol: as §2

P. aeruginosa ATCC 27853 [4] = assay: biofilm formation inhibition, crystal violet assay; type: cell-based, Pseudomonas aeruginosa; details: mean ± SD, n = 3
Protocol: Biofilm formation was evaluated utilizing the crystal violet assay.[22] The P. aeruginosa ATCC 27853 strain was used in this experiment. The bacterial attachment was initiated by inoculating the culture medium with approximately 10^7 CFU/mL in polystyrene 96-well plates, followed by incubation at 37 °C for 2 h in aerobic conditions. Subsequent to the attachment phase, the medium was carefully aspirated, and the 96-well plates were rinsed with phosphate-buffered saline (PBS) (pH 7.0) to eliminate unattached cells. The fresh medium, along with tested compounds, was then introduced to assess the inhibitory impact on biofilm formation. Following an 18 h incubation at 37 °C, a crystal violet (CV) assay was conducted. The well plate was washed with PBS to eliminate unattached cells, and a 1% CV solution was added, allowing for a 30 min incubation at room temperature. After this period, the well plate underwent three PBS washes, and absolute ethanol was added, incubating for 15 min. Following the transfer of the stained solution to a new well plate, the absorbance was measured at 595 nm.

[5] = tested on: pyocyanin production in the PA14 strain; assay: pyocyanin inhibition assay (chloroform extraction); type: cell-based, Pseudomonas aeruginosa; details: half of the MIC, 12 h, mean ± SD, n = 3
Protocol: Following the specified incubation period, the cultures underwent centrifugation at 10,000 rpm for 10 min, leading to the collection of the supernatant. Subsequently, 3 mL of chloroform was added to 5 mL of the supernatant, and the mixture was vortexed for 20 s. After centrifugation at 5000 rpm for 10 min, the resulting blue layer at the bottom was transferred to a new tube. To each tube, 2 mL of 0.2 M HCl was added and vortexed for 20 s. The sample underwent subsequent centrifugation for 2 min at 5000 rpm, and 1 mL of the resulting pink layer was transferred to cuvettes. A blank was established using 0.2 M HCl. Spectrophotometric measurements were carried out at 520 nm.

P. aeruginosa ATCC 27853 [6] = assay: swarming motility; type: cell-based, Pseudomonas aeruginosa; details: 24 h at 37 °C; for migration distance (mm): swarming, control 100 mm
Protocol: The analysis was performed in Petri dishes with the LB minimal medium supplemented with 0.2% glucose and 0.5% agar, as described by Kearns.[24] Tested compounds were added to the motility agar at the desired concentration. Aliquots (1.0 μL) were taken from P. aeruginosa ATCC 27853 overnight cultures and spotted in the center of each well, and the migration zones were measured after 24 h of incubation at 37 °C. The inhibition rate was calculated as follows: [drawing 1] where Dtreated and Dcontrol are the migration distances in the treated and control samples, respectively.

HEK-293 cells = assay: AlamarBlue cell viability assay; type: cell-based; details: Homo sapiens, HEK293, 24 h exposure
Protocol: HEK-293 cells were cultured in DMEM containing 25 mM glucose, 10% heat-inactivated fetal bovine serum (FBS), 100 U/mL penicillin, and 100 μg/mL streptomycin. Cells were incubated at 37 °C in a humidified atmosphere containing 95% air and 5% CO2.
[…] Untreated groups were set as the control (100% cell viability). On the 24th, cells were treated with the Invitrogen AlamarBlue cell viability reagent for an additional 2 h. Optical density (OD) values (at wavelengths of 570 and 600 nm) were then recorded. The percentage of cell viability was calculated according to the protocol provided by the manufacturer.

S. aureus [7] = tested on: S. aureus; design: method as in Liu et al.[7]; details: bromo benzenediol derivatives; ref Liu et al.[7]; cited from earlier work
P. aeruginosa [8] = tested on: P. aeruginosa; design: method as in Liu et al.[7]; details: bromo benzenediol derivatives; ref Liu et al.[7]; cited from earlier work
[9] = tested on: Staphylcoccus epidermidis; design: method as in Liu et al.[7]; details: ref Liu et al.[7]; cited from earlier work

SMILES | Diameter of zone inhibition on SA (S. aureus ATCC 2793) | inhibition zone diameter S. aureus (S. aureus ATCC 2793) | Diameter of zone inhibition on MRSA (MRSA) | inhibition zone diameter MRSA (MRSA) | Diameter of zone inhibition on PA (P. aeruginosa ATCC 27853 [1]) | inhibition zone diameter P. aeruginosa (P. aeruginosa ATCC 27853 [1]) | MIC S. aureus (S. aureus [2]) | MIC (S. aureus [2]) | MIC P. aeruginosa (P. aeruginosa [3]) | MIC (P. aeruginosa [3]) | biofilm formation inhibition (%) (P. aeruginosa ATCC 27853 [4]) | pyocyanin production inhibition (%) [5] | swarming motility inhibition rate (%) (P. aeruginosa ATCC 27853 [6]) | migration distance (mm) (P. aeruginosa ATCC 27853 [6]) | IC50 (HEK-293 cells) | MIC S. aureus (S. aureus [7]) | MIC P. aeruginosa (P. aeruginosa [8]) | MIC on Staphylcoccus epidermidis [9]
CC1(C)S[C@@H]2[C@H](NC(=O)[C@H](N)c3ccccc3)C(=O)N2[C@H]1C(=O)O [ampicillin] | 14.5 mm | 16 mm | 15.5 mm | 18 mm | 0 mm | no observable zone diameter | 10 µg/mL (≈ 28.6 µM) | 10 µg/mL (≈ 28.6 µM) | inactive | – | – | – | – | – | – | – | – | –
CC(=O)c1c(O)ccc(Br)c1O [compound 2, 3-Bromo-2,6-dihydroxyacetophenone] | – | 29 mm | – | 30 mm | – | 1 mm | – | 12 µg/mL (≈ 51.9 µM) | – | 780 µg/mL (≈ 3380 µM) | 14% | 52% | 86.5% | 13.5 mm | 31.1 µM | – | – | –
CC(=O)c1cc(Br)c(O)c(Br)c1O [compound 3, 3,5-Dibromo-2,4-dihydroxyacetophenone] | – | 12 mm | – | 20 mm | – | 1 mm | – | 390 µg/mL (≈ 1260 µM) | – | 780 µg/mL (≈ 2520 µM) | 14% | 38% | 86.5% | 13.5 mm | > 32 µM | – | – | –
Oc1cc(Cc2cc(O)c(O)c(Br)c2Br)c(Br)c(Br)c1O [compound 7, 4,4′-methylenebis(5,6-dibromo-1,2-benzenediol)] | – | – | – | – | – | – | – | – | – | – | – | – | – | – | – | 140 µg/mL (≈ 256 µM) | 140 µg/mL (≈ 256 µM) | –
Oc1cc(COCc2cc(O)c(O)c(Br)c2Br)c(Br)c(Br)c1O [compound 8, bis(2,3-dibromo-4,5-dihydroxybenzyl)ether] | – | – | – | – | – | – | – | – | – | – | – | – | – | – | – | 70 µg/mL (≈ 121 µM) | 70 µg/mL (≈ 121 µM) | 35 µg/mL (≈ 60.6 µM)
CN(C)[C@@H]1C(O)=C(C(N)=O)C(=O)[C@@]2(O)C(O)=C3C(=O)c4c(O)cccc4[C@@](C)(O)[C@H]3C[C@@H]12 [tetracycline] | 9.75 mm | 14 mm | 10.25 mm | 12 mm | 10.5 mm | 10 mm | 30 µg/mL (≈ 67.5 µM) | 30 µg/mL (≈ 67.5 µM) | 70 µg/mL (≈ 158 µM) | 70 µg/mL (≈ 158 µM) | – | – | – | – | – | – | – | –
NC[C@H]1O[C@H](O[C@H]2[C@H](O)[C@@H](O[C@H]3O[C@H](CO)[C@@H](O)[C@H](N)[C@H]3O)[C@H](N)C[C@@H]2N)[C@H](N)C[C@@H]1O [tobramycin] | – | 15 mm | 5.5 mm | 12 mm | 5.5 mm | 15 mm | 25 µg/mL (≈ 53.5 µM) | 25 µg/mL (≈ 53.5 µM) | 15 µg/mL (≈ 32.1 µM) | 15 µg/mL (≈ 32.1 µM) | – | – | – | – | – | – | – | –
